The test system of experiment [1] is ARO. The text has this:
(§1) Human anaplastic thyroid carcinoma cell lines FRO and ARO were used with respectively, undetectable or mutant p53 in codon 273 (Fagin et al., J. Clin. Invest. 1993, 91:179-184). Human papillary carcinoma cell line NPA has p53 mutations in codons 223 and 226 (Fagin et al., J. Clin. Invest. 1993, 91:179-184), while TPC-1 and KTC-1 papillary thyroid carcinoma cell lines are wild type for p53 (Kurebayashi et al., J. Clin. Endocrinol. Metab. 2000, 85:2889-96). Stable transfection with a vector expressing wild type p53 was used to produce the 1F3 cell line from FRO cells (Zeki et al., Int. J. Cancer, 1998, 75:391-5). […] Primary human thyroid cell cultures were established as described previously (Kawabe et al., J. Clin. Endocrinol. Metab., 1989, 68:1174-83) and maintained in a 2:1 mixture of F12 Nutrient Mixture and DEM, supplemented with 3% fetal bovine serum and penicillin-streptomycin (all reagents from Invitrogen Life Technologies, Paisley, UK).
(§2) The kinetics of cell growth were examined using a cytometer as follows: cells were seeded at a density of 0.5 or 0.1×10^5 cells per well in 12-well culture plates. […] Both experiments were performed at least three times.

Experiment [2] concerns FRO.
Source text: as §1, §2

The test system of experiment [3] is KTC-1. The note with it: read-out: IC50 values, mean (50% reduction in cell growth); KTC-1, 72 h of incubation, n=3.
Source text: as §1, §2

Experiment [4] relates to NPA.
Source text: as §1, §2

Experiment [5] concerns TPC-1. Conditions: read-out: IC50 values, mean (50% reduction in cell growth); TPC-1, 72 h of incubation, n=3.
Source text: as §1, §2

Experiment [6] concerns primary thyrocytes (PT). Conditions: read-out: IC50 values, mean (50% reduction in cell growth), 72 h of incubation, n=3.
Source text: as §1, §2

The mark [7] stands for this setting: read-out: IC50 (cytostatic effect).
[8] abbreviates: read-out: IC50 values, mean (50% reduction in cell growth), 72 h of incubation, n=3.

SMILES strings stand for the structures. Read-outs that look alike come from different tables or passages of the source.

By IC50 is commonly meant the midpoint of a concentration-inhibition curve. On to `CS(=O)(=O)O.Cc1ccc(NC(=O)c2ccc(CN3CCN(C)CC3)cc2)cc1Nc1nccc(-c2cccnc2)n1` [SALT I, 4-[(4-methyl-1-piperazin-1-ylmethyl)-N-[4-methyl-3-[[4-(3-pyridinyl)-2-pyrimidinyl]amino]phenyl]benzamide methanesulfonate], for which the IC50 amounted to 5.9 µM in experiment [1] (setting [7]); 8.1 µM in experiment [1] (setting [8]); 7.8 µM in experiment [2] (setting [7]); 6.4 µM in experiment [2] (setting [8]); 22.6 µM in experiment [3]; 16 µM in experiment [4] (read-out: IC50, as stated in the discussion, NPA cells). Further, the IC50 turned out to be 15.6 µM in experiment [4] (read-out: IC50 values, mean (50% reduction in cell growth), NPA, 72 h of incubation, n=3); 29.5 µM in experiment [5]; 24.7 µM in experiment [6].

The record behind these values is US20060106026A1, “4-(4-methylpiperazin-1-ylmethyl)-n-[4-pyridin-3-yl)pyrimidin-2-ylamino)phenyl]-benzamide for treating anaplastic thyroid cancer” (priority 2002, published 2006).
